The text below walks through data of paper PMC12024264, “Frog Skin Peptides Hylin-a1, AR-23, and RV-23: Promising Tools Against Carbapenem-Resistant Escherichia coli and Klebsiella pneumoniae Infections” (Antibiotics, 2025).

Holding throughout (assay): Antibiotic resistance profile of clinical isolate (Table S1)
The test system of one assay is E. coli 3140. The format is cell-based, Escherichia coli. The protocol: (§1) Each strain was grown in Mueller Hinton Broth (MH Broth), and 5 × 10^5 CFU/mL was used to evaluate antibacterial activity. Clinical carbapenem-resistant K. pneumoniae and E. coli isolates were collected at the AOU of Virology and Microbiology of the University of Campania “Luigi Vanvitelli”. […]
(§2) Table S1. Antibiotic resistance profile of K. pneumoniae and E. coli clinical isolates . MIC: Minimum Inhibitory
(§3) Concentration was expressed in µg/mL; S: Sensible; I: Intermediate; R: Resistant.
(§4) Antibiotic Resistance Profile of the Clinical Isolated Bacteria
(§5) Antibiotics MIC (µg/mL) Interpretation […]

Another assay relates to E. coli 716. The format is cell-based, Escherichia coli. The method, then: as §1, §2, §3, §4, §5
The test system of another assay is E. coli 2267. The format is cell-based, Escherichia coli. The conditions noted are these: Table S1, E. coli 2267. The method, then:
as §1, §2, §3, §4, §5

A further assay relates to E. coli 1441. The format is cell-based, Escherichia coli. The protocol: as §1, §2, §3, §4, §5
In another assay the test system is E. coli 1376. The format is cell-based, Escherichia coli. The protocol: as §1, §2, §3, §4, §5
The subject of another assay is K. pneumoniae 311. The format is cell-based, Klebsiella pneumoniae. The method, then:
as §1, §2, §3, §4, §5

The next assay concerns K. pneumoniae 1711. The format is cell-based, Klebsiella pneumoniae. The conditions noted are these: Table S1, K. pneumoniae 1711. The method, then:
as §1, §2, §3, §4, §5

The subject of the next assay is K. pneumoniae 1746. The format is cell-based, Klebsiella pneumoniae. The method, then: as §1, §2, §3, §4, §5
Another assay has as its system K. pneumoniae 1745. The format is cell-based, Klebsiella pneumoniae. The conditions noted are these: Table S1, K. pneumoniae 1745. The method, then: as §1, §2, §3, §4, §5
Where [1] appears, read: Escherichia coli, read-out: MIC.
The mark [2] stands for this setting: Klebsiella pneumoniae, read-out: MIC.

Converted amounts (≈) assume the structure as drawn. Read-outs that look alike come from different tables or passages of the source. Some results are limits rather than exact numbers.

Trimethoprim/sulfamethoxazole: the Interpretation entry is given as “S” in the assay on E. coli 3140 (Table S1, E. coli 3140); “R” in the assay on E. coli 716 (Table S1, E. coli 716); “R” in the assay on E. coli 2267; “S” in the assay on E. coli 1441 (Table S1, E. coli 1441); “R” in the assay on E. coli 1376 (Table S1, E. coli 1376); “S” in the assay with K. pneumoniae 311 (Table S1, K. pneumoniae 311). Also, the Interpretation entry in the assay on K. pneumoniae 1711 is “R”; in the assay with K. pneumoniae 1746 (Table S1, K. pneumoniae 1746) it was “S”; in the assay on K. pneumoniae 1745, “R”. Also, the minimum inhibitory concentration (MIC) is listed as ≤ 1/19 in the assay with E. coli 3140 (Table S1, E. coli 3140); > 4/76 in the assay with E. coli 716 (Table S1, E. coli 716); > 4/76 against E. coli 2267; ≤ 1/19 with E. coli 1441 (Table S1, E. coli 1441); > 4/76 in the assay with E. coli 1376 (Table S1, E. coli 1376); 2/38 against K. pneumoniae 311 (Table S1, K. pneumoniae 311). For the same compound, the minimum inhibitory concentration (MIC) with K. pneumoniae 1711 was > 4/76; in the assay with K. pneumoniae 1746 (Table S1, K. pneumoniae 1746) it was ≤ 1/19; against K. pneumoniae 1745, > 4/76.

`CC(C)(O/N=C(\C(=O)N[C@@H]1C(=O)N2C(C(=O)[O-])=C(C[N+]3(CCNC(=O)c4ccc(O)c(O)c4Cl)CCCC3)CS[C@H]12)c1csc(N)n1)C(=O)O` [Cefiderocol]: the Interpretation result with K. pneumoniae 1711 was “I”; with K. pneumoniae 1746 (Table S1, K. pneumoniae 1746) it was “S”.

Take `CO/N=C(\C(=O)N[C@@H]1C(=O)N2C(C(=O)O)=C(COC(N)=O)CS[C@H]12)c1ccco1` [Cefuroxime]: the MIC against E. coli 3140 (Escherichia coli, 3140) was above 8 µg/mL; against E. coli 716 (Escherichia coli, 716), above 8 µg/mL; in the assay with E. coli 2267 (setting [1]), above 8 µg/mL; with E. coli 1441 (Escherichia coli, 1441), above 8 µg/mL; against E. coli 1376 (Escherichia coli, 1376) it was above 8 µg/mL; against K. pneumoniae 311 (Klebsiella pneumoniae, 311) it was above 8 µg/mL. Further, the minimal inhibitory concentration (MIC) in the assay on K. pneumoniae 1711 (setting [2]) and in the assay on K. pneumoniae 1745 (setting [2]) was above 8 µg/mL throughout. The Interpretation result with E. coli 3140 (Table S1, E. coli 3140) is on record as “R”; in the assay with E. coli 716 (Table S1, E. coli 716), “R”; in the assay on E. coli 2267, “R”; in the assay with E. coli 1441 (Table S1, E. coli 1441), “R”; with E. coli 1376 (Table S1, E. coli 1376), “R”; in the assay with K. pneumoniae 311 (Table S1, K. pneumoniae 311), “R”. Besides, the Interpretation entry in the assay with K. pneumoniae 1711 and with K. pneumoniae 1745 was “R” each time.

In turn, `O=C1CN(/N=C/c2ccc([N+](=O)[O-])o2)C(=O)N1` [Nitrofurantoin] gave an MIC against E. coli 3140 (Escherichia coli, 3140) of at most 16 µg/mL. The Interpretation result in the assay with E. coli 3140 (Table S1, E. coli 3140) is “S”.

With `CO/N=C(\C(=O)N[C@@H]1C(=O)N2C(C(=O)[O-])=C(C[N+]3(C)CCCC3)CS[C@H]12)c1csc(N)n1` [Cefepime], the Interpretation result with E. coli 2267, in the assay on K. pneumoniae 1711 and in the assay with K. pneumoniae 1745 was “R” throughout.

The compound `CCn1cc(C(=O)O)c(=O)c2cc(F)c(N3CCNCC3)cc21` [Norfloxacin] registered an MIC in the assay with E. coli 3140 (Escherichia coli, 3140) of at most 0.5 µg/mL. Further, the Interpretation entry in the assay on E. coli 3140 (Table S1, E. coli 3140) is given as “S”.

Regarding `C[C@@H]1O[C@@H]1P(=O)(O)O` [Fosfomycin], the minimum inhibitory concentration (MIC) is at most 16 µg/mL against E. coli 716 (Escherichia coli, 716); at most 16 µg/mL in the assay with E. coli 2267 (setting [1]); at most 16 µg/mL with E. coli 1441 (Escherichia coli, 1441); above 64 µg/mL in the assay on E. coli 1376 (Escherichia coli, 1376); at most 16 µg/mL with K. pneumoniae 311 (Klebsiella pneumoniae, 311); 32 µg/mL (≈ 232 µM) with K. pneumoniae 1711 (setting [2]). Further, the MIC is at most 16 µg/mL against K. pneumoniae 1746 (Klebsiella pneumoniae, 1746) and at most 16 µg/mL in the assay with K. pneumoniae 1745 (setting [2]). In addition, the Interpretation entry is reported as “S” in the assay on E. coli 716 (Table S1, E. coli 716); “S” with E. coli 2267; “S” in the assay with E. coli 1441 (Table S1, E. coli 1441); “R” with E. coli 1376 (Table S1, E. coli 1376); “S” in the assay on K. pneumoniae 311 (Table S1, K. pneumoniae 311); “S” with K. pneumoniae 1711. Further, the Interpretation result with K. pneumoniae 1746 (Table S1, K. pneumoniae 1746) is “S”; with K. pneumoniae 1745, “S”.

`CN(C)c1cc(NC(=O)CNC(C)(C)C)c(O)c2c1C[C@H]1C[C@H]3[C@H](N(C)C)C(O)=C(C(N)=O)C(=O)[C@@]3(O)C(O)=C1C2=O` [Tigecycline]: the MIC was above 2 µg/mL in the assay with E. coli 716 (Escherichia coli, 716); above 2 µg/mL with E. coli 2267 (setting [1]); at most 0.5 µg/mL in the assay on E. coli 1441 (Escherichia coli, 1441); at most 0.5 µg/mL in the assay with E. coli 1376 (Escherichia coli, 1376). Besides, the Interpretation entry was “R” in the assay on E. coli 716 (Table S1, E. coli 716); “R” in the assay on E. coli 2267; “S” in the assay on E. coli 1441 (Table S1, E. coli 1441); “S” with E. coli 1376 (Table S1, E. coli 1376).
